This is an account of results in patent US12410155B2, “Salt form and crystal form of tetrahydrocyclohepta indazole compound” (Zhejiang Yangli Pharmaceutical Technology Co., Ltd., priority 2021, dated 2025).

Read-outs that look alike come from different tables or passages of the source.

One assay deals with T1, ERα (Homo sapiens, UniProt P03372).
T1 construct: degradation effects on ERα in various breast cancer cell lines; endogenous in cells; host or cells: MCF-7, T-47D, CAMA-1
T1 sequence (P03372 1-595): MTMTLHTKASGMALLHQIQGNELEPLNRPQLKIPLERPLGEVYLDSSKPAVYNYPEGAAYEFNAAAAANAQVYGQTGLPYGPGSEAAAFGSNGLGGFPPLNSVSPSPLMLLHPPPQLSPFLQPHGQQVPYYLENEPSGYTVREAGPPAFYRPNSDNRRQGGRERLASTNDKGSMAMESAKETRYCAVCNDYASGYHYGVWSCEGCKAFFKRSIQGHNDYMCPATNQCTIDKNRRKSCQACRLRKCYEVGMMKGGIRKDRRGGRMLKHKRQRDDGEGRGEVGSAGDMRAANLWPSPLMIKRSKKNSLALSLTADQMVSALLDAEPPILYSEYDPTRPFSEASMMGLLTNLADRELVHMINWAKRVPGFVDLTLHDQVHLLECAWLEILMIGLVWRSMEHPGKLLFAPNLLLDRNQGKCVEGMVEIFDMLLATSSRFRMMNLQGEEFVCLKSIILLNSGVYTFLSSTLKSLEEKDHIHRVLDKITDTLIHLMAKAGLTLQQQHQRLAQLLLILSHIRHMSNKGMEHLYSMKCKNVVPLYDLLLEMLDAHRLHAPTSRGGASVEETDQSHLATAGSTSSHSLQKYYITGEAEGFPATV
Nature of the assay: ERα degradation assay (ICW) in MCF-7, T-47D and CAMA-1 cells. The assay is classed as cell-based. Conditions: 4 hours, read-out: IC50 (nM), degradation effect on ERα. As to the method: (3) ERα Degradation Assay in MCF-7, T-47D, and CAMA-1 Cells
• 1) The complete culture medium was aspirated from the culture flask, followed by the addition of an appropriate amount of trypsin for rinsing. The trypsin solution was then aspirated to remove residual serum. • 2) Subsequently, an appropriate amount of trypsin was added for a second rinse and aspirated. The culture flask was placed in an incubator for 2-3 minutes, then removed, and gently agitated to detach the cells. • 3) The cells were resuspended in fresh complete culture medium and counted using a cell counter. • 4) The cell suspension was prepared according to the required plating density. • 5) A volume of 30.0 μL of the cell suspension was added to each well of a 384-well plate. • 6) The experimental plate was placed in a centrifuge and centrifuged at 1000 rpm for 1 minute. • 7) The experimental plate was then incubated overnight in a cell incubator. • 8) According to the sample addition diagram of experimental plate (refer to 3.5.1), 20.0 μL of the diluted test sample was added to each well. […] The plate was incubated at 4° C. overnight. • 19) The primary antibody solution in the plate was discarded, and the plate was washed five times with PBS using a multidrop. • 20) A mixture of 25 μL of secondary antibody and DRAQ5 was added to each well, and incubated at room temperature for 1 hour. • 21) The plate was washed five times with PBS using a multidrop. • 22) The plate was washed with ddH2O twice, and patted dry. • 23) The plate was subsequently read using the Odyssey infrared imaging system. […]
The IC50 values were calculated using GraphPad Prism 7.0, a data analysis software.
This experiment evaluated the effect of compound of formula (I) on the expression of ERα protein in MCF-7, T-47D, and CAMA-1 cells. The expression levels of ERα protein were detected using the ICW assay after 4 hours of drug treatment.

The next assay has as its system MDA-MB-134VI cells. Nature of the assay: MDA-MB-134VI cell proliferation inhibition assay (CTG). Format: cell-based. Conditions: Homo sapiens, 240 h, 10 days. The procedure:
(5) HCC1428 and MDA-MB-134VI Cell Proliferation Inhibition Assay
The initial concentration of the compound of formula (I) was set at 200 nM, followed by 4-fold serial dilutions to achieve ten concentration gradients.
• 1) MDA-MB-134VI cells were cultured in DMEM complete growth medium containing 20% FBS and 1% PenStrep. • 2) When the cells in a T75 culture flask reached 80-90% cell fusion, they were digested with trypsin and collected. The cell passages used were the eighth generation for the first independent experiment and the sixth generation for the second independent experiment. • 3) The cells were centrifuged at 1000 rpm, resuspended in complete medium, and counted. The cell densities were 3.60×10^6 cells/mL for the first experiment and 1.93×10^6 cells/mL for the second experiment, with viability both exceeding 95%. • 4) Cell suspensions were prepared in complete medium at a density of 4.00×10^4 cells/mL for both experiments. […] 100 μL of CellTiter-Glo® reagent was added to each well. The plates were incubated at room temperature in the dark for 30 minutes. • 8) Luminescence values were read using a BMG plate reader.
The IC50 (half-maximal inhibitory concentration) of the compound was obtained using the following nonlinear fitting formula: […]

As to `FCCCN1CC[C@H](Nc2cnc(C3=C(CC(F)(F)F)CCCc4c3ccc3[nH]nc(F)c43)cn2)C1` [Compound of formula (I)], the DC50 was 1.25 nM on ERα (CAMA-1 cells), 0.235 nM on ERα (MCF-7 cells) and 0.78 nM on ERα (T-47D cells). Further, the values for the half-inhibitory concentration (IC50) in the assay on MDA-MB-134VI cells (First experiment), with MDA-MB-134VI cells (Mean ± SD) and in the assay on MDA-MB-134VI cells (Second experiment) were 0.12 nM, 0.31 ± 0.26 nM and 0.49 nM, respectively.
